# From patent US10898548B2, “Modulators of protein tyrosine phosphatase and uses thereof” (LEUVAS THERAPEUTICS, priority 2015, dated 2021)
# “Also recorded” adds a separate entry of the source. Marks after values point to notes of the source that are not given here.
# Legend:
# [1] = system: tyrosine phosphatase activity in PMNs; experiment: in vitro phosphatase activity (pNPP) on membranes from human primary PMNs; assay type: biochemical; conditions: PMN membranes, DMSO 0.75
# Experimental: (§1) We first tested the biochemical activity of the fusion peptide by performing in vitro assays of phosphatase activity on purified membranes isolated from human primary monocytes compared to membranes isolated from human primary polymorphonuclear cells (PMNs). Human primary monocytes and polymorphonuclear (PMNs) cells were isolated from whole blood of healthy donors. Purity of monocyte preparation was evaluated by flow cytometry after staining with fluorescein isothiocyanate (FITC)-conjugated anti-CD14 antibody and was more than 95%. Isolated cells were kept at 37° C. in standard adhesion buffer (PBS, 1 mM CaCl2, 1 mM MgCl2, 10% FBS, pH 7.2) and used within 1 h.
# (§2) The phosphatase activity in membrane fractions isolated from human monocytes and PMNs was assessed. […] Cells were then sonicated twice (6 sec, 15% W) and centrifuged at 2000 rpm for 10 minutes. The supernatants were collected and centrifuged at 28000 rpm for 60 minutes. After centrifugation, the supernatants were discarded, and the membrane pellets were dissolved in 20 mM tris pH 7.4. Equal amount of membrane fractions were added to pNPP buffer containing 20 mM tris, 10 mM DTT and 2 mM pNPP. Following, DMSO and peptides were added. After 30 minutes of incubation, levels of de-phosphorylation, in presence or absence of orthovanadate, were measured at 405 nm by a plate reader. Values are absorbance at 405 nn shown as percent fold increase over the blank; mean values of three experiments are shown. *p<0.001 vs vehicle (DMSO).
# [2] = system: T98G GBM cells; experiment: MTT survival assay, T98G GBM cells; assay type: cell-based, human
# Experimental: (§3) The DBTRG-O5MG (Denver Brain Tumor Research Group 05) cell line was established from tissue from a patient with glioblastoma multiforme who had been treated with local brain irradiation and multi drug chemotherapy (Kruse C A, et al. 1992 In vitro Cell Dev Biol, 28A(9-10):609-14). U87 is a commonly studied and thoroughly characterized grade IV glioma cell line derived from malignant glioma (Clark M J, et al, 2010 Plos Genet. 6(1):e1000832.). T98G is a glioblastoma multiforme cell line extracted from a person (Stein G H, 1979, J. Cell Physiol, 99(1):43-54). Proliferation and survival were assessed following TAT-ICD or control peptide (Table 29) or the P1-WD or control peptide treatment using the MTT assay as described above. Data are relative absorption; mean and standard deviation.
# [3] = system: PTPRG; experiment: in vitro phosphatase activity (pNPP) on membranes from human primary monocytes; assay type: biochemical; conditions: monocyte membranes, DMSO 7.25
# Experimental: as §1, §2
# [4] = system: human neutrophils; experiment: fMLP-triggered adhesion of neutrophils (PMNs) to ICAM-1; assay type: cell-based; conditions: human PMNs
# Experimental: We investigated the functional effect of PTPRG activation on integrin activation and mediated adhesion by chemoattractants in human primary monocytes and PMNs in a static and flow adhesion assays. Briefly, human primary monocytes or polymorphonuclear cells were suspended at 5×10^6/ml in standard adhesion buffer. Adhesion assays were performed on 18-well glass slides coated with 1 mg/ml human fibrinogen or with 1 μg/ml human ICAM-1 in PBS; 20 μl of cell suspension were added to the coated wells and stimulated for 1 min at 37° C. with 5 μl of fMLP, 0.05 μM final concentration. After rapid washing, adherent cells were fixed in ice-cold 1.5% glutaraldehyde in PBS, and still images of adherent cells in 0.2 mm^2 fields were acquired al 20× phase contrast magnification, NA 0.40, with a charge-coupled device camera (ICD-42B; Ikegami) connected to an inverted microscope (IX50; Olympus). Image acquisition and computer-assisted enumeration of adherent cells were performed with ImageJ (National Institute of Health).
# Chemokine-triggered adhesion of human neutrophils was measured similarly. Freshly isolated, non-activated human neutrophils incubated with buffer or increasing concentrations of TAT-ICD and then spotted onto ICAM-1-coated slides. Integrin-mediated adhesion was triggered using 50 nM fMLP and the adherent cells were fixed and enumerated as described for the lymphocytes above.
# [5] = system: U87 GBM cells; experiment: VYBRANT apoptosis, U87 GBM cells; assay type: cell-based; conditions: 0.5 μM
# [6] = system: COS7 cells; experiment: MTT assay, COS7 cells; assay type: cell-based
# [7] = system: U87 GBM cells; experiment: MTT survival assay, U87 GBM cells; assay type: cell-based
# Experimental: as §3
# [8] = system: DBTRG GBM cells; experiment: VYBRANT early apoptosis, DBTRG GBM cells; assay type: cell-based, human; conditions: 0.5 μM
# [9] = system: bEnd3 endothelial cells; experiment: MTT assay, bEnd3 endothelial cells; assay type: cell-based
# [10] = in vitro phosphatase assay of TAT-ICD (pNPP); assay type: biochemical; conditions: 50 μM TAT control peptide or 50 μM TAT-ICD; 30 minutes
# Experimental: Cells were then sonicated twice (6 sec, 15% \N) and centrifuged at 2000 rpm for 10 minutes. The supernatants were collected and centrifuged at 28000 rpm for 60 minutes and then the membrane pellets were dissolved in 20 mM tris pH 7.4. Equal amount of membrane fractions were added to pNPP buffer containing 20 mM tris, 10 mM DTT and 2 mM pNPP. Following, DMSO and 50 μM TAT control peptide or 50 μM TAT-ICD, in presence or absence of 200 μM Na3VO4 were added. After 30 minutes of incubation, levels of de-phosphorylation, in presence or absence of orthovanadate, were measured at 405 nm by a plate reader (Table 5). Shown is % fold increase over the pNPP buffer alone; mean values of 7 experiments in triplicate.
# [11] = P1 or P1-WD 50 μM, 24 hours, Control 971
# [12] = P1 or P1-WD 50 μM, 48 hours, Control 1305
# [13] = P1 or P1-WD 50 μM, 72 hours, Control 1481
# [14] = control peptide, concentration not given
substance,measurement,setting,value
"P1-WD: fusion Trojan peptide SEQ ID 3: Penetratin, glycine, PTPRG wedge domain aa 831-856; RQIKIWFQNRRMKWKKGKQFVKHIGELYSNNQHGFSEDFEEVQ (listed as Homo sapiens)","phosphatase activity, absorbance at 405 nm as percent fold increase over the blank",[1]; P1-WD 50 micromolar,5.15%
same,"phosphatase activity, absorbance at 405 nm as percent fold increase over the blank",[1]; P1-WD 100 micromolar,8.54%
same,"phosphatase activity, absorbance at 405 nm as percent fold increase over the blank",[1]; P1-WD 200 micromolar,12.89%
same,absorbance in the MTT assay,"[2]; P1-WD 10 μM, 24 hours, Control 971",629
same,absorbance in the MTT assay,"[2]; P1-WD 10 μM, 48 hours, Control 1305",854
same,absorbance in the MTT assay,"[2]; P1-WD 10 μM, 72 hours, Control 1481",985
same,absorbance in the MTT assay,"[2]; P1-WD 25 μM, 24 hours, Control 971",555
same,absorbance in the MTT assay,"[2]; P1-WD 25 μM, 48 hours, Control 1305",697
same,absorbance in the MTT assay,"[2]; P1-WD 25 μM, 72 hours, Control 1481",835
same,absorbance in the MTT assay,[2]; [11],540
same,absorbance in the MTT assay,[2]; [12],744
same,absorbance in the MTT assay,[2]; [13],842
same,"phosphatase activity, absorbance at 405 nm as percent fold increase over the blank",[3]; P1-WD 50 micromolar,34.62* %
same,"phosphatase activity, absorbance at 405 nm as percent fold increase over the blank",[3]; P1-WD 100 micromolar,86.70* %
same,"phosphatase activity, absorbance at 405 nm as percent fold increase over the blank",[3]; P1-WD 200 micromolar,109.00* %
same,chemoattractant-induced adhesion / integrin activation of PMNs,[4],completely unaffected; also recorded: not able to block
"P1: Penetratin delivery peptide, 16 aa RQIKIWFQNRRMKWKK (SEQ ID 4), control [reference compound]","phosphatase activity, absorbance at 405 nm as percent fold increase over the blank",[1]; [14],5.08%
same,absorbance in the MTT assay,[2]; [11],1113
same,absorbance in the MTT assay,[2]; [12],1019
same,absorbance in the MTT assay,[2]; [13],1111
same,"phosphatase activity, absorbance at 405 nm as percent fold increase over the blank",[3]; [14],16.00%
TAT (GRKKRRQRRRPPQ; listed as Homo sapiens) [reference compound],percent of apoptotic cells,"[5]; 1 hour, Control 10",20%
same,percent of apoptotic cells,"[5]; 3 hours, Control 3",10%
same,percent of apoptotic cells,"[5]; 6 hours, Control 14",20%
same,absorbance in the MTT assay,"[2]; TAT 500[…]μM, 24 hours, CTRL 971",954
same,absorbance in the MTT assay,"[2]; TAT 500[…]μM, 48 hours, CTRL 1305",1237
same,absorbance in the MTT assay,"[2]; TAT 500[…]μM, 72 hours, CTRL 1481",1205
same,mean absorbance in the MTT assay,"[6]; 0.1 μM, 24 hours, CTRL 700",649
same,mean absorbance in the MTT assay,"[6]; 0.1 μM, 48 hours, CTRL 1267",1320
same,mean absorbance in the MTT assay,"[6]; 0.1 μM, 72 hours, CTRL 1500",1495
same,mean absorbance in the MTT assay,"[6]; 0.25 μM, 24 hours, CTRL 700",624
same,mean absorbance in the MTT assay,"[6]; 0.25 μM, 48 hours, CTRL 1267",1250
same,mean absorbance in the MTT assay,"[6]; 0.25 μM, 72 hours, CTRL 1500",1388
same,mean absorbance in the MTT assay,"[6]; 0.5 μM, 24 hours, CTRL 700",650
same,mean absorbance in the MTT assay,"[6]; 0.5 μM, 48 hours, CTRL 1267",1289
same,mean absorbance in the MTT assay,"[6]; 0.5 μM, 72 hours, CTRL 1500",1341
same,MTT relative absorption,"[7]; 0.1 μM, 24 hours, CTRL 1200",1200
same,MTT relative absorption,"[7]; 0.1 μM, 48 hours, CTRL 1200",1018
same,MTT relative absorption,"[7]; 0.1 μM, 72 hours, CTRL 1336",1343
same,MTT relative absorption,"[7]; 0.25 μM, 24 hours, CTRL 1200",1195
same,MTT relative absorption,"[7]; 0.25 μM, 48 hours, CTRL 1200",950
same,MTT relative absorption,"[7]; 0.25 μM, 72 hours, CTRL 1336",1200
same,MTT relative absorption,"[7]; 0.5 μM, 24 hours, CTRL 1200",1160
same,MTT relative absorption,"[7]; 0.5 μM, 48 hours, CTRL 1200",900
same,MTT relative absorption,"[7]; 0.5 μM, 72 hours, CTRL 1336",1235
same,percent of apoptotic cells by flow cytometry,"[8]; 1 h, Control 14",10%
same,percent of apoptotic cells by flow cytometry,"[8]; 3 h, Control 16",10%
same,percent of apoptotic cells by flow cytometry,"[8]; 6 h, Control 33",7%
same,mean absorbance in the MTT assay,"[9]; 0.1 uM, 24 hours, CTRL 352",354
same,mean absorbance in the MTT assay,"[9]; 0.1 uM, 48 hours, CTRL 523",503
same,mean absorbance in the MTT assay,"[9]; 0.25 uM, 24 hours, CTRL 352",338
same,mean absorbance in the MTT assay,"[9]; 0.25 uM, 48 hours, CTRL 523",540
same,mean absorbance in the MTT assay,"[9]; 0.5 uM, 24 hours, CTRL 352",328
same,mean absorbance in the MTT assay,"[9]; 0.5 uM, 48 hours, CTRL 523",528
same,"phosphatase activity, % fold increase over the pNPP buffer alone",[10],191.7%
